Measurements reported in US9499493B2, “2,4-pyrimidinediamine compounds and their uses” (Rigel Pharmaceuticals, Inc., priority 2002, dated 2016).

Key:
[1] = tested on: bone marrow derived mast cells (BMMC); experiment: BMMC high cell density IgE activation: TNFalpha; assay type: cell-based, mouse; settings: anti-IgE, second part of TABLE 1, read-out: BMMC anti-IgE TNF-alpha IC50
How it was run: (§1)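 IgE-sensitized BMMC (1-3×10^6 cells/ml, MT buffer) were pretreated with compound for 1 h at 37 °C in 0.5% DMSO, then stimulated with DNP-BSA (6× stimulus, 60 ng/ml) for 1 h. Supernatant was taken, and cells were re-incubated 4–5 h in WEI-conditioned medium with compound. Mediators were quantified by ELISA.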

[2] = tested on: B-cell line BJAB; experiment: BJAB toxicity, Cell Titer Glo assay; assay type: cell-based; settings: 18 hours incubation
Description: Seed 50 μl cells (1×10^6/ml) into each well containing 50 μl compound. The final vehicle concentration is 0.5% DMSO, 1.5% MeOH. Shake plates for 1 minute to mix cells and compound. Incubate plates at 37° C. (5% CO2) for 18 hours. Next day, harvest 50 μl cells from each well, add to 50 μl Cell Titer Glo reagent ([…]). Shake plates for 1 minute. Read on luminometer.

[3] = tested on: basophil cells; experiment: Basophil IgE activation: histamine release assay; assay type: cell-based, human; settings: Basophils, anti-IgE
Description: (§2) The basophil activation assay was carried out using whole human peripheral blood from donors allergic to dust mites with the majority of the red blood cells removed by dextran sedimentation. Human peripheral blood was mixed 1:1 with 3% dextran T500 and RBCs were allowed to settle for 20-25 min. The upper fraction was diluted with 3 volumes of D-PBS and cells were spun down for 10 min at 1500 rpm, RT. Supernatant was aspirated and cells were washed in an equal volume MT-buffer. Finally, cells were resuspended in MT-buffer containing 0.5% DMSO in the original blood volume. 80 uL cells were mixed with 20 uL compound in the presence of 0.5% DMSO, in triplicate, in a V-bottom 96-well tissue culture plate. A dose range of 8 compound concentrations was tested resulting in a 10-point dose response curve including maximum (stimulated) and minimum (unstimulated) response. […] The cells were stimulated for 30 minutes at 37° C., 5% CO2. The plate was spun for 10 min at 1500 rpm at room temperature and 80 uL the supernatant was harvested for histamine content analysis using the histamine ELISA kit supplied by Immunotech. The ELISA was performed according to supplier's instructions.

[4] = tested on: cultured human mast cells (CHMC); experiment: CHMC high cell density IgE activation: histamine; assay type: cell-based; settings: anti-IgE activation
How it was run: (§3)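 IgE-sensitized CHMC at 1-2×10^6 cells/ml were pretreated with compound for 1 h at 37 °C (0.5% DMSO final), then anti-IgE-stimulated for 1 h and supernatant collected. Hexosaminidase was read with a fluorogenic substrate. Pellets were re-incubated 7 h with compound before supernatant ELISAs.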

[5] = tested on: bone marrow derived mast cells (BMMC); experiment: BMMC high cell density IgE activation: LTC4; assay type: cell-based, mouse; settings: anti-IgE, second part of TABLE 1
How it was run: as §1

[6] = tested on: cultured human mast cells (CHMC); experiment: CHMC high cell density IgE activation: IL-13; assay type: cell-based; settings: anti-IgE activation
Description: Inhibition of degranulation was measured at both low and high cell density by quantifying the release of the granule specific factors tryptase, histamine and hexosaminidase. Inhibition of release and/or synthesis of lipid mediators was assessed by measuring the release of leukotriene LTC4 and inhibition of release and/or synthesis of cytokines was monitored by quantifying TNF-α, IL-6 and IL-13. Tryptase and hexosaminidase were quantified using fluorogenic substrates as described in their respective examples. […] The protocols of the various assays are provided below.
After sensitizing, cells are counted, pelleted (1000 rpm, 5-10 minutes), and resuspended at 1-2×10^6 cells/ml in MT buffer. Add 100 ul of cell suspension to each well and 100 ul of compound dilutions. The final vehicle concentration is 0.5% DMSO. Incubate at 37° C. (5% CO2) for 1 hour. After 1 hour of compound treatment, stimulate cells with 6× anti-IgE. Mix wells with the cells and allow plates to incubate at 37° C. (5% CO2) for one hour. After 1 hour incubation, pellet cells (10 minutes, 1000 RPM) and collect 200 ul per well of the supernatant, being careful not to disturb pellet. Place the supernatant plate on ice. During the 7-hour step (see next) perform tryptase assay on supernatant that had been diluted 1:500. Resuspend cell pellet in 240 ul of CM media containing 0.5% DMSO and corresponding concentration of compound. Incubate CHMC cells for 7 hours at 37° C. (5% CO2). After incubation, pellet cells (1000 RPM, 10 minutes) and collect 225 ul per well and place in −80° C. until ready to perform ELISAS. ELISAS are performed on appropriately diluted samples (determined empirically for each donor cell population so that the sample measurement falls within the standard curve) following the supplier's instructions.

[7] = tested on: cultured human mast cells (CHMC); experiment: CHMC high cell density IgE activation: LTC4; assay type: cell-based; settings: anti-IgE activation
How it was run: as §3

[8] = tested on: basophil cells; experiment: Basophil dustmite activation: histamine release assay; assay type: cell-based; settings: human basophils, house dustmite stimulus; second part of TABLE 1
Description: as §2

Row | Structure (SMILES) | IC50 [1] | IC50 [2] | IC50 [3] | IC50 [4] | IC50 [5] | IC50 [6] | IC50 [7] | IC50 [8]
1 | CNC(=O)COc1cccc(Nc2ncc(F)c(Nc3ccc4c(c3)NCCO4)n2)c1 [R921219, N4-(1,4-Benzoxazin-6-yl)-5-fluoro-N2-[3-(N-methylamino)carbonylmethyleneoxyphenyl]-2,4-pyrimidinediamine] | 0.039 µM | > 10 µM | 0.025 µM | 0.162 µM | 0.04 µM | 0.175 µM | 0.034 µM | 0.02 µM
2 | CNC(=O)COc1cccc(Nc2ncc(F)c(Nc3cccc(O)c3)n2)c1 [R926508, 5-Fluoro-N4-(3-hydroxyphenyl)-N2-[3-(N-methylamino)carbonylmethyleneoxyphenyl]-2,4-pyrimidinediamine] | 0.054 µM | > 10 µM | 0.065 µM | 0.105 µM | 0.162 µM | 0.763 µM | 0.505 µM | 0.054 µM
